Data as given in PMC8429728, “TNK1 is a ubiquitin-binding and 14-3-3-regulated kinase that can be targeted to block tumor growth” (Nature Communications, 2021).
Like-named read-outs stand apart in the source and are kept apart here.

Columns and labels:
Experiment in all cases: biochemical
Set-up in all cases: Reaction Biology 371-kinase panel at Km ATP, per cent enzyme activity relative to DMSO, single dose in duplicate
[1] = biological target: AXL (Homo sapiens, UniProt P30530); settings: duplicate measurements, Km ATP
Experimental: (§1) To assess kinase selectivity, we screened TP-5801 (300 nM) against a panel of 371 kinases in vitro. […] In addition to TNK1, only 7 other kinases were inhibited by more than 90% (Supplementary Fig. 8 and Supplementary Data 2). […] The resulting % Enzyme activity (relative to DMSO controls) were plotted in GraphPad and IC50 values were determined by sigmoidal dose-response (variable slope) curve fits, with a bottom constraint of 0.

[2] = biological target: BMPR2 (Homo sapiens, UniProt Q13873); settings: duplicate measurements, Km ATP
Experimental: as §1

[3] = biological target: CAMK2d (Homo sapiens, UniProt Q13557); settings: duplicate measurements, Km ATP
Experimental: as §1

[4] = biological target: T1, CK1G3 (Homo sapiens, UniProt Q9Y6M4); settings: duplicate measurements, Km ATP
T1 construct: gene CSNK1G3
Experimental: as §1

[5] = biological target: CSK (Homo sapiens, UniProt P41240); settings: duplicate measurements, Km ATP
Experimental: as §1

[6] = biological target: DAPK2 (Homo sapiens, UniProt Q9UIK4); settings: duplicate measurements, Km ATP
Experimental: as §1

[7] = biological target: ERK5/MAPK7 (Homo sapiens, UniProt Q13164); settings: duplicate measurements, Km ATP
Experimental: as §1

[8] = biological target: FLT4/VEGFR3 (Homo sapiens, UniProt P35916); settings: duplicate measurements, Km ATP
Experimental: as §1

[9] = biological target: GRK1 (Homo sapiens, UniProt Q15835); settings: duplicate measurements, Km ATP
Experimental: as §1

[10] = biological target: IKKe/IKBKE (Homo sapiens, UniProt Q14164); settings: duplicate measurements, Km ATP
Experimental: as §1

[11] = biological target: MAPKAPK5/PRAK (Homo sapiens, UniProt Q8IW41); settings: duplicate measurements, Km ATP
Experimental: as §1

[12] = biological target: T2, MEK3 (Homo sapiens, UniProt P46734); settings: duplicate measurements, Km ATP
T2 construct: gene MAP2K3
Experimental: as §1

[13] = biological target: MST3/STK24 (Homo sapiens, UniProt Q9Y6E0); settings: duplicate measurements, Km ATP
Experimental: as §1

[14] = biological target: PBK/TOPK (Homo sapiens, UniProt Q96KB5); settings: duplicate measurements, Km ATP
Experimental: as §1

[15] = biological target: RAF1 (Homo sapiens, UniProt P04049); settings: duplicate measurements, Km ATP
Experimental: as §1

[16] = biological target: STK32B/YANK2 (Homo sapiens, UniProt Q9NY57); settings: duplicate measurements, Km ATP
Experimental: as §1

[17] = biological target: TESK1 (Homo sapiens, UniProt Q15569); settings: duplicate measurements, Km ATP; read-out: % Enzyme Activity (relative to DMSO controls) / TP-0005801 (0.3µM) / Data 1
Experimental: as §1

[18] = biological target: TGFBR2 (Homo sapiens, UniProt P37173); settings: duplicate measurements, Km ATP
Experimental: as §1

[19] = biological target: TYK1/LTK (Homo sapiens, UniProt P29376); settings: duplicate measurements, Km ATP; read-out: % Enzyme Activity (relative to DMSO controls) / TP-0005801 (0.3µM) / Data 1
Experimental: as §1

[20] = biological target: ULK3 (Homo sapiens, UniProt Q6PHR2); settings: duplicate measurements, Km ATP
Experimental: as §1

[21] = read-out: % Enzyme Activity (relative to DMSO controls) / TP-0005801 (0.3µM) / Data 1
[22] = read-out: % Enzyme Activity (relative to DMSO controls) / TP-0005801 (0.3µM) / Data 2

Chain of BMPR2 (Q13873 whole entry): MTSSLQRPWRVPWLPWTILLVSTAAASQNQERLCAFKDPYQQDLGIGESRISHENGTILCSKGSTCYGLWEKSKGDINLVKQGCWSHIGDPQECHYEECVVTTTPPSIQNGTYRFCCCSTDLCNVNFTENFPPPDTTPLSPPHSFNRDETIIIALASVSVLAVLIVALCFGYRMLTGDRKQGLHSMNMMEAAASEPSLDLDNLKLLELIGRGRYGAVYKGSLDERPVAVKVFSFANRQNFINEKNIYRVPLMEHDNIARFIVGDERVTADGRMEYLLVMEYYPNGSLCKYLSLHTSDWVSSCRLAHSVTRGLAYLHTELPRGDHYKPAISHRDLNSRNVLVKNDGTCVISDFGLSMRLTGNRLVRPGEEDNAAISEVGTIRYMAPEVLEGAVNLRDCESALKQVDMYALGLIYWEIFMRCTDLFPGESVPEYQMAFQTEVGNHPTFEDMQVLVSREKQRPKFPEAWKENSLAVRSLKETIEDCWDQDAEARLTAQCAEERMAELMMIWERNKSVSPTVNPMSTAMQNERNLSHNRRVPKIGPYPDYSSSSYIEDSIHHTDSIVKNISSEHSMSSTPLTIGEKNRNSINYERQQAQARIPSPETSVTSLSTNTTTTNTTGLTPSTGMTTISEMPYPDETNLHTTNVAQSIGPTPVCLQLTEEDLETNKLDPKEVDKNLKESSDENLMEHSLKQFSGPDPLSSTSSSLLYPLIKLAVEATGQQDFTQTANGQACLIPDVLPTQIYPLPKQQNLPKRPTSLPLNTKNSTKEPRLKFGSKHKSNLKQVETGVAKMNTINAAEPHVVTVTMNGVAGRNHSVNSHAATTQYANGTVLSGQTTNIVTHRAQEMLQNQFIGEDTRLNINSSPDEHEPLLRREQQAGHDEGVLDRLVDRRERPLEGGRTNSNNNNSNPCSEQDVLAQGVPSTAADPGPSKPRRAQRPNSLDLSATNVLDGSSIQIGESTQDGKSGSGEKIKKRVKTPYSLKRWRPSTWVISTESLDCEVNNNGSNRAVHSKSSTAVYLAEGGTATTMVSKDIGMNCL
Chain of IKKe/IKBKE (Q14164 whole entry): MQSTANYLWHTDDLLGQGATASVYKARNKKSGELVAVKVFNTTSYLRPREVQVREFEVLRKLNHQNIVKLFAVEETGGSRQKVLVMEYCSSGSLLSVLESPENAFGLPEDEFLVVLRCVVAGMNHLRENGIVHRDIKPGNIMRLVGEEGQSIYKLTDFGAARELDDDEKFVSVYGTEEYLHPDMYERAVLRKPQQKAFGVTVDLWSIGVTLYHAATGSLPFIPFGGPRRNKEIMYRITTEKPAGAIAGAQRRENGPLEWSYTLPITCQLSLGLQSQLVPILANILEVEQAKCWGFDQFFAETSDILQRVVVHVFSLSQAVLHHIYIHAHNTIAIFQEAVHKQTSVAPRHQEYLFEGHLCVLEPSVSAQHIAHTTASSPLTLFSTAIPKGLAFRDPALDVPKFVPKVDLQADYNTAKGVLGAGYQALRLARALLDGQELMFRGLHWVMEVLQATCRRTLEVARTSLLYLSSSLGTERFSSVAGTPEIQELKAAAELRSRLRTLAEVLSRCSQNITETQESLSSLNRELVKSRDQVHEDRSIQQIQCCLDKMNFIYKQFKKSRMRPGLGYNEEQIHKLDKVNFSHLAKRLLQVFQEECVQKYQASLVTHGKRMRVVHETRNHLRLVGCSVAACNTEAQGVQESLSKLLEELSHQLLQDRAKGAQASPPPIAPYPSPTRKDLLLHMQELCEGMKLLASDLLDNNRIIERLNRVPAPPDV
Chain of DAPK2 (Q9UIK4 whole entry): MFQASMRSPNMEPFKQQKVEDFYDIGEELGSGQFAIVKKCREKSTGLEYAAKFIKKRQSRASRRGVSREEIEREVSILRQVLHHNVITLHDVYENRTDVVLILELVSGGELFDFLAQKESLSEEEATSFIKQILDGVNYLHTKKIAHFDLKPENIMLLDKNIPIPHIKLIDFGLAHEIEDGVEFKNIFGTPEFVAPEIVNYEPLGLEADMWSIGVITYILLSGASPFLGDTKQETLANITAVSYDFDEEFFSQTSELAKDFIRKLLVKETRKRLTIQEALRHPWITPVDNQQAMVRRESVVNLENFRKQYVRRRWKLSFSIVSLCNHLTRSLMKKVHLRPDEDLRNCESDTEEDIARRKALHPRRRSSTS
Chain of STK32B/YANK2 (Q9NY57 whole entry): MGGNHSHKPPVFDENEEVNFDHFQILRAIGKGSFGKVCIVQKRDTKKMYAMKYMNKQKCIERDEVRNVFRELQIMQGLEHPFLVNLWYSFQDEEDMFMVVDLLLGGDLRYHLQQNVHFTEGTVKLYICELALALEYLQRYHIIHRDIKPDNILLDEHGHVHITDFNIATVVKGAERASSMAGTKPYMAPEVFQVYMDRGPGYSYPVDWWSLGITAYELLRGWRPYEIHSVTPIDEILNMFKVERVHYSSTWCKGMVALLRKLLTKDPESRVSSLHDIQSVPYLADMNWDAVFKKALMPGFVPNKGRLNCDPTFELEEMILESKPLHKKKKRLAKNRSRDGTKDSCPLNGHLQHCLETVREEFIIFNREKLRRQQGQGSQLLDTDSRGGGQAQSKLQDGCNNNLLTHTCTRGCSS
Chain of PBK/TOPK (Q96KB5 whole entry): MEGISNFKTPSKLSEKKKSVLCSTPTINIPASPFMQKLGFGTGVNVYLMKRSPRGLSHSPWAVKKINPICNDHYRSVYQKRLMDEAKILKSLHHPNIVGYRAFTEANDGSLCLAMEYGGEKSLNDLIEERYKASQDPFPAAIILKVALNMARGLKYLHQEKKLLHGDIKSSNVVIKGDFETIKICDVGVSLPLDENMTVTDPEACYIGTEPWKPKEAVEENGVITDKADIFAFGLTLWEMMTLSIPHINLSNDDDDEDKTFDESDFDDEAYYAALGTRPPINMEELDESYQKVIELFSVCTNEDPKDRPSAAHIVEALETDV
T2 sequence (P46734 whole entry): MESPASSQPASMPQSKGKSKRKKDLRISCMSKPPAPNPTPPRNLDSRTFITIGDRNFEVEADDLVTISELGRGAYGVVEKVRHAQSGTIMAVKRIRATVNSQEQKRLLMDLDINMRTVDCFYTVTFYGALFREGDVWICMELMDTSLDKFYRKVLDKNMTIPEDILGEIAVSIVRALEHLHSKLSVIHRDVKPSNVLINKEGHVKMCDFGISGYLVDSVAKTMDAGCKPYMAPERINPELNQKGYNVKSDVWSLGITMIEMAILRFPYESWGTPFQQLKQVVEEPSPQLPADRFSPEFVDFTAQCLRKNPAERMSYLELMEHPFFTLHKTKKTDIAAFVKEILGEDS
Chain of RAF1 (P04049 whole entry): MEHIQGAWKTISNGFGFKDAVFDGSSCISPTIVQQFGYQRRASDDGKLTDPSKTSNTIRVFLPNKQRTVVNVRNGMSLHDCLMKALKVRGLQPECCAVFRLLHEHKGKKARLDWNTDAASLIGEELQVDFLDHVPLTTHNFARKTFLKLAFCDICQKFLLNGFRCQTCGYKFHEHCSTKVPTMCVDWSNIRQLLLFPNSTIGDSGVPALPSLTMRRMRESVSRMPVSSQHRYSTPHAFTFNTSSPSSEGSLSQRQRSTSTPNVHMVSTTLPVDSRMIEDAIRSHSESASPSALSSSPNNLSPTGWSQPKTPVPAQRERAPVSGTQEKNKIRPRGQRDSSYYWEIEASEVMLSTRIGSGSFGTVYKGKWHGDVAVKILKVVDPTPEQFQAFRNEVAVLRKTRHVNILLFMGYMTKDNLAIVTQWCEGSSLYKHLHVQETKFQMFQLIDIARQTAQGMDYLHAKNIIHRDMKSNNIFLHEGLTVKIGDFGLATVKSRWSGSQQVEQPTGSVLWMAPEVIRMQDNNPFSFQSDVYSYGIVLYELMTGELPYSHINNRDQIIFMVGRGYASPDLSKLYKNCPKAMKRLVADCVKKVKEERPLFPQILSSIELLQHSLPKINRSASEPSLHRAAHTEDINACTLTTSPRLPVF
Chain of CAMK2d (Q13557 whole entry): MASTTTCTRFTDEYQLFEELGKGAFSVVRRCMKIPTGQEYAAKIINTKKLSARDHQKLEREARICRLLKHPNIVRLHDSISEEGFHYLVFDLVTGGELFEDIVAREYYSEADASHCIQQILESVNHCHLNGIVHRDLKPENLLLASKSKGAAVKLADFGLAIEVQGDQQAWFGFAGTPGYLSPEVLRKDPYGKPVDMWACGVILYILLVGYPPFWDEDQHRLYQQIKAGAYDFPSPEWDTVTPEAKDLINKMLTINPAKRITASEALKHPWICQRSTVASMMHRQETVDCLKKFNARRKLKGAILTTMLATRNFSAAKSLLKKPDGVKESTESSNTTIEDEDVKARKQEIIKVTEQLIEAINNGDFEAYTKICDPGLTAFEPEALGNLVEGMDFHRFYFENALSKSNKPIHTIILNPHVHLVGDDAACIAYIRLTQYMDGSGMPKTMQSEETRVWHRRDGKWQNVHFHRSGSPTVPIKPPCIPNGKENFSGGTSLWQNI
Chain of MST3/STK24 (Q9Y6E0 whole entry): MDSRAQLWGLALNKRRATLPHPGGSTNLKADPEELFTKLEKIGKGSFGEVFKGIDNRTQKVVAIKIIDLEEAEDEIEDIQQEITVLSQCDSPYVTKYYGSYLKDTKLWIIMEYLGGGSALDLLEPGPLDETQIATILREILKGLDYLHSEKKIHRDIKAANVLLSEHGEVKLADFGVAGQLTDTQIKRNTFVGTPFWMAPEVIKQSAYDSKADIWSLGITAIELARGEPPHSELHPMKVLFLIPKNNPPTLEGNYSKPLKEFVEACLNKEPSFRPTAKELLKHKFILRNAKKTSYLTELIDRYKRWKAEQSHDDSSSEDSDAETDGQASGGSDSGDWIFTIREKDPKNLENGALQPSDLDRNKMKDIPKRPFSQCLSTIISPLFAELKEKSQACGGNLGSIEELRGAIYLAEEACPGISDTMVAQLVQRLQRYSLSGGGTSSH

remaining activity at 0.3 µM [1, 21]: 89.2%
remaining activity at 0.3 µM [1, 22]: 86.3%
remaining activity at 0.3 µM [2, 21]: 89.7%
remaining activity at 0.3 µM [2, 22]: 89.2%
remaining activity at 0.3 µM [3, 21]: 4.74%
remaining activity at 0.3 µM [3, 22]: 4.45%
remaining activity at 0.3 µM [4, 21]: 94.7%
remaining activity at 0.3 µM [4, 22]: 93.6%
remaining activity at 0.3 µM [5, 21]: 92.6%
remaining activity at 0.3 µM [5, 22]: 89.8%
remaining activity at 0.3 µM [6, 21]: 95.1%
remaining activity at 0.3 µM [6, 22]: 93.2%
remaining activity at 0.3 µM [7, 21]: 91.6%
remaining activity at 0.3 µM [7, 22]: 90.9%
remaining activity at 0.3 µM [8, 21]: 35.2%
remaining activity at 0.3 µM [8, 22]: 35.1%
remaining activity at 0.3 µM [9, 21]: 118%
remaining activity at 0.3 µM [9, 22]: 109%
remaining activity at 0.3 µM [10, 21]: 99.7%
remaining activity at 0.3 µM [10, 22]: 94.2%
remaining activity at 0.3 µM [11, 21]: 116%
remaining activity at 0.3 µM [11, 22]: 107%
remaining activity at 0.3 µM [12, 21]: 174%
remaining activity at 0.3 µM [12, 22]: 173%
remaining activity at 0.3 µM [13, 21]: 106%
remaining activity at 0.3 µM [13, 22]: 103%
remaining activity at 0.3 µM [14, 21]: 107%
remaining activity at 0.3 µM [14, 22]: 98.9%
remaining activity at 0.3 µM [15, 21]: 90.8%
remaining activity at 0.3 µM [15, 22]: 90.2%
remaining activity at 0.3 µM [16, 21]: 96.4%
remaining activity at 0.3 µM [16, 22]: 94.8%
remaining activity at 0.3 µM [17]: 102%
remaining activity at 0.3 µM [18, 21]: 99.3%
remaining activity at 0.3 µM [18, 22]: 97.8%
remaining activity at 0.3 µM [19]: 16.4%
remaining activity at 0.3 µM [20, 21]: 43.8%
remaining activity at 0.3 µM [20, 22]: 40.1%
Structure (SMILES): COc1cc(N2CCN(C)CC2)c(C)cc1Nc1ncc(Br)c(Nc2cccnc2N(C)C)n1 [TP-5801]
